The data set in a line: Stability of cream formulation: HPLC assay of solamargine. It counts as physicochemical. The conditions noted are these: cream with 5% urea, 10% salicylic, 25°C, 60% RH. How it is done:
Visual appearance was conducted by comparison to standard commercially available solamargine cream composition. High-Performance Liquid Chromatography (HPLC) to determine quantity of solamargine in the cream, substantially as described in WO 2000061153 A1.

With `C[C@@H]1CC[C@@]2(NC1)O[C@H]1C[C@H]3[C@@H]4CC=C5C[C@@H](O[C@@H]6O[C@H](CO)[C@@H](O[C@@H]7O[C@@H](C)[C@H](O)[C@@H](O)[C@H]7O)[C@H](O)[C@H]6O[C@@H]6O[C@@H](C)[C@H](O)[C@@H](O)[C@H]6O)CC[C@]5(C)[C@H]4CC[C@]3(C)[C@H]1[C@@H]2C` [Solamargine, (22R,25R)-spiro-5-en-3β-yl-α-L-rhamnopyranosyl-(1→2glu)-O-α-L-rhamnopyranosyl-(1→4glu)-β-D-gluco-pyranose], the “HPLC Assay Solamargine” value (10% lactic acid, 1% Xanthan gum, 0 months) amounted to 20.6 μg/g cream; the “HPLC Assay Solamargine” value (10% lactic acid, 1% Xanthan gum, 3 months) was found to be 23.1 μg/g cream; the “HPLC Assay Solamargine” value (10% lactic acid, 1% Xanthan gum, 6 months) was 19.8 μg/g cream; the “HPLC Assay Solamargine” value (10% lactic acid, 1% Xanthan gum, 9 months) stood at 21.2 μg/g cream; the “HPLC Assay Solamargine” value (10% lactic acid, 1% Xanthan gum, 12 months) is recorded as 23.1 μg/g cream; the “HPLC Assay Solamargine” value (10% lactic acid, 1% Xanthan gum, 18 months) stood at 20.4 μg/g cream. For the same compound, the “HPLC Assay Solamargine” value runs as follows: (10% lactic acid, 1% Xanthan gum, 24 months) 22.1 μg/g cream; (10% lactic acid, 1% Xanthan gum, 36 months) 19.8 μg/g cream; (10% lactic acid, 1% Xanthan gum, 42 months) 19.6 μg/g cream; (10% lactic acid, 1% Xanthan gum, 48 months) 21.2 μg/g cream; (no lactic acid, no emulsion-stabilising agent, 0 months) 18.3 μg/g cream; (no lactic acid, no emulsion-stabilising agent, 3 months) 19 μg/g cream. Further, the “HPLC Assay Solamargine” value (no lactic acid, no emulsion-stabilising agent, 6 months) is reported as 21.1 μg/g cream; the “HPLC Assay Solamargine” value (no lactic acid, no emulsion-stabilising agent, 9 months) was 9.2 μg/g cream; the “HPLC Assay Solamargine” value (no lactic acid, no emulsion-stabilising agent, 12 months) turned out to be 7.3 μg/g cream; the “HPLC Assay Solamargine” value (no lactic acid, no emulsion-stabilising agent, 18 months) stood at 6.8 μg/g cream; the “HPLC Assay Solamargine” value (no lactic acid, no emulsion-stabilising agent, 24 months) was 5.1 μg/g cream; the “HPLC Assay Solamargine” value (no lactic acid, no emulsion-stabilising agent, 36 months) is on record as 5.3 μg/g cream. Further, the “HPLC Assay Solamargine” value (no lactic acid, no emulsion-stabilising agent, 42 months) stood at 5.1 μg/g cream and the “HPLC Assay Solamargine” value (no lactic acid, no emulsion-stabilising agent, 48 months) came to 5.2 μg/g cream.

(Values after patent US12357649B2, “Glycoalkaloid combinations and various uses thereof” (priority 2016, dated 2025).)
